The target in this assay is human GLP1R (hGLP1R) (Homo sapiens, UniProt P43220). Description: Human GLP1R β-arrestin recruitment assay (PathHunter). In kind it is cell-based. The conditions noted are these: CHO-hGLP1R-β-arrestin cells; for EC50: 2 h at 37° C., top concentration 30 μM, read-out: Beta-Arrestin assay EC50 Mean; for Emax: relative to GLP1(7-36), read-out: Beta-Arrestin assay Emax (%). Set-up: insert synthesized by GeneArt 93-0164 (CHO-K1-EA parental cells); 93-0491 (pCMV PK vector bundle). As for the experimental part:
Compounds of formula (I) according to the invention were tested in the following cellular assays that measure the intracellular cAMP concentration, beta-arrestin recruitment and receptor internalization. The cAMP is generated by the activation of GLP1R. The extent to which the GLP1R is internalized into the cell and away from the plasma membrane following activation is also shown in Table 2. EC50 for each assay is defined as the concentration of the compound that leads to half of the maximum response (after baseline correction). Emax is defined as the maximum response observed for the test compound, normalized to the maximum response observed for the endogenous ligand (GLP1(7-36)) to GLP1R.
Human GLP1R β-Arrestin Recruitment Assay
The extent to which agonists recruited β-arrestin was measured using the PathHunter® β-arrestin assay (DiscoverX). This assay measures binding of β-arrestin to the receptor using an enzyme complementation approach. […] When β-arrestin is recruited to the receptor the enzyme becomes active and generates luminescence in the presence of a chemiluminescent substrate (PathHunter® Detection Kit, DiscoverX cat #93-0001). Luminescence can be measured on a relevant detector. CHO-hGLP1R-β-arrestin cells stably overexpressing hGLP1R with Prolink tag and β-arrestin with EA tag were seeded at 20 μL per well in white 384-well poly-D-Lysine coated plates (Greiner Bio One, cat #781945) in Plating Reagent 2 (DiscoverX, cat #93-0563R^2A), and incubated overnight at 37° C., 5% CO2 with humidity. The following day, agonists were prepared at 5 times the final required concentration. To generate triplicate dose response curves, compounds were serially diluted 3-fold in assay buffer (HBSS, 10 mM Hepes and 0.1% BSA), then added to the cell assay plate to a final volume of 25 μL and final top concentrations starting at 30 μM. In the same plate and assay buffer as the tested compounds, were EC100 control wells containing GLP1 (7-36) peptide (Bachem, cat #H-6795) at a final concentration of 1 μM and also EC0 control wells containing no compound. The plate was incubated at 37° C., 5% CO2 with humidity for 2 h after adding the compounds to the cells. Then the detection reagent was prepared (19 parts cell assay buffer, 5 parts substrate reagent 1 and 1 part substrate reagent 2 as per manufacturers recommendations, DiscoverX cat #93-0001), and 12 μL were added per well to the cell assay plate. The plate was incubated for an additional hour in the dark at RT. Luminescence was then measured with an Envision 2104 Multilabel reader with “TRF Light Unit, 337 nm” (Perkin Elmer) using the Ultra-Sensitive protocol setting “384-well US luminescence detector” with the 384-well luminescence aperture, 0.1 sec per well. β-arrestin recruitment was calculated and expressed as percent of the GLP1 (7-36) EC100 control wells: [(sample signal−mean EC0 signal)/(mean EC100 of GLP1 (7-36) signal−mean EC0 signal)]*100 using Microsoft Excel. Curve fitting for EC50 determinations was performed using GraphPad Prism. The 4-parameter logistic model, Hill slope was used: Y=Bottom+(Top−Bottom)/(1+10^((Log EC50−X)*Hill Slope)), where Y is the functional response; X is the compound concentration; bottom is A0 or the minimum value (at 0 dose); top is Ainf or the maximum value (at infinite dose); EC50 is the point of inflection (i.e. the point on the sigmoid shaped curve halfway between A0 and Ainf). The EC50 value was calculated in μM. Emax is the maximal activity detected within the concentration range, derived from the fitted curve relative to GLP1(7-36).
PathHunter CHO-K1-EA parental cells (DiscoverX, cat #93-0164) were plated at a density of 2×10^6 cells per T75 cm^2 flask in 22 mL of complete medium (AssayComplete Cell Culture kit 107, DiscoverX, cat #92-3107G). The following day, the medium was replaced with 22 mL of fresh medium with no antibiotics and cells were transfected as follows. […]
In general terms: Activated receptors often draw arrestin, which recruitment assays turn into a signal.

SMILES strings stand for the structures.

In US20250145600A1, “2-((4-((S)-2-(4-CHLORO-2-FLUOROPHENYL)-2-METHYLBENZO[D][1,3]DIOXOL-4-YL)PIPERIDIN-1-YL)METHYL)-1-(((S)-OXETAN-2-YL)METHYL)-1H-IMIDAZOLE DERIVATIVES AS ACTIVATORS OF THE GLP1 RECEPTOR FOR THE TREATMENT OF OBESITY” (Novartis AG, priority 2022, published 2025) one finds EC50 and Emax data, which are given here for 14 compounds.

Chain of human GLP1R (hGLP1R) (P43220 24-463): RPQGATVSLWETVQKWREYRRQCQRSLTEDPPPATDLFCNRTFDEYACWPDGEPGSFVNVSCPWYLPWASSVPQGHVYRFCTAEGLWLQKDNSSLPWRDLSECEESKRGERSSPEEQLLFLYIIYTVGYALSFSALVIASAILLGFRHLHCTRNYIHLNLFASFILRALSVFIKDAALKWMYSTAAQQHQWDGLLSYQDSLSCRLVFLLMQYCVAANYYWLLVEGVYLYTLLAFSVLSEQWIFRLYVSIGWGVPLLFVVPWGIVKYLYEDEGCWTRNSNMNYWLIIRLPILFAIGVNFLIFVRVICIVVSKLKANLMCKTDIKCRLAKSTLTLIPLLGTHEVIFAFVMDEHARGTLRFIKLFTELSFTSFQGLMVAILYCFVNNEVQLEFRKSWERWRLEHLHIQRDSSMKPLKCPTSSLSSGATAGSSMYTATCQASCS

On to `Cc1c(-c2nc(C(F)(F)F)c(C(=O)O)o2)nc(CN2CCC(c3cccc4c3O[C@@](C)(c3ccc(Cl)cc3F)O4)CC2)n1C[C@@H]1CCO1` [Compound C-14, 2-(2-((4-((S)-2-(4-chloro-2-fluorophenyl)-2-methylbenzo[d][1,3]dioxol-4-yl)piperidin-1-yl)methyl)-5-methyl-1-(((S)-oxetan-2-yl)methyl)-1H-imidazol-4-yl)-4-(trifluoromethyl)oxazole-5-carboxylic acid], for which the EC50 (commonly the concentration at which the effect is half-maximal) is above 30 µM and the Emax (commonly the maximal effect, on the per cent scale that the assay sets) amounted to 0%.
Regarding `C[C@]1(c2ccc(Cl)cc2F)Oc2cccc(C3CCN(Cc4nc(C(F)(F)F)c(-c5nc(C(=O)O)co5)n4C[C@@H]4CCO4)CC3)c2O1` [Compound C-4, 2-(2-((4-((S)-2-(4-chloro-2-fluorophenyl)-2-methylbenzo[d][1,3]dioxol-4-yl)piperidin-1-yl)methyl)-1-(((S)-oxetan-2-yl)methyl)-4-(trifluoromethyl)-1H-imidazol-5-yl)oxazole-4-carboxylic acid], the EC50 was above 30 µM and the Emax came out at 0%.
For `Cc1c(-c2ccc(C(=O)O)o2)nc(CN2CCC(c3cccc4c3O[C@@](C)(c3ccc(Cl)cc3F)O4)CC2)n1C[C@@H]1CCO1` [Compound C-24, 5-(2-((4-((S)-2-(4-chloro-2-fluorophenyl)-2-methylbenzo[d][1,3]dioxol-4-yl)piperidin-1-yl)methyl)-5-methyl-1-(((S)-oxetan-2-yl)methyl)-1H-imidazol-4-yl)furan-2-carboxylic acid], in that order: above 30 µM and 1%.
Consider `Cc1c(-c2cnc(C(=O)O)o2)nc(CN2CCC(c3cccc4c3O[C@@](C)(c3ccc(Cl)cc3F)O4)CC2)n1C[C@@H]1CCO1` [Compound C-16, 5-(2-((4-((S)-2-(4-chloro-2-fluorophenyl)-2-methylbenzo[d][1,3]dioxol-4-yl)piperidin-1-yl)methyl)-5-methyl-1-(((S)-oxetan-2-yl)methyl)-1H-imidazol-4-yl)oxazole-2-carboxylic acid], for which the EC50 was above 30 µM and the maximal response (Emax) is 11%.
The corresponding values for `Cc1c(-c2coc(C(=O)O)n2)nc(CN2CCC(c3cccc4c3O[C@@](C)(c3ccc(Cl)cc3F)O4)CC2)n1C[C@@H]1CCO1` [Compound C-18, 4-(2-((4-((S)-2-(4-chloro-2-fluorophenyl)-2-methylbenzo[d][1,3]dioxol-4-yl)piperidin-1-yl)methyl)-5-methyl-1-(((S)-oxetan-2-yl)methyl)-1H-imidazol-4-yl)oxazole-2-carboxylic acid] are above 30 µM and 16%.
The corresponding values for `Cc1c(-c2cc(C(=O)O)n(C)n2)nc(CN2CCC(c3cccc4c3O[C@@](C)(c3ccc(Cl)cc3F)O4)CC2)n1C[C@@H]1CCO1` [Compound C-17, 3-(2-((4-((S)-2-(4-chloro-2-fluorophenyl)-2-methylbenzo[d][1,3]dioxol-4-yl)piperidin-1-yl)methyl)-5-methyl-1-(((S)-oxetan-2-yl)methyl)-1H-imidazol-4-yl)-1-methyl-1H-pyrazole-5-carboxylic acid] are above 30 µM and 2%.
For `Cc1cc(-c2nc(CN3CCC(c4cccc5c4O[C@@](C)(c4ccc(Cl)cc4F)O5)CC3)n(C[C@@H]3CCO3)c2C)oc1C(=O)O` [Compound C-19, 5-(2-((4-((S)-2-(4-chloro-2-fluorophenyl)-2-methylbenzo[d][1,3]dioxol-4-yl)piperidin-1-yl)methyl)-5-methyl-1-(((S)-oxetan-2-yl)methyl)-1H-imidazol-4-yl)-3-methylfuran-2-carboxylic acid], in that order: above 30 µM and 7%.
For the compound `Cc1oc(-c2nc(CN3CCC(c4cccc5c4O[C@@](C)(c4ccc(Cl)cc4F)O5)CC3)n(C[C@@H]3CCO3)c2C)nc1C(=O)O` [Compound C-12, 2-(2-((4-((S)-2-(4-chloro-2-fluorophenyl)-2-methylbenzo[d][1,3]dioxol-4-yl)piperidin-1-yl)methyl)-5-methyl-1-(((S)-oxetan-2-yl)methyl)-1H-imidazol-4-yl)-5-methyloxazole-4-carboxylic acid], the EC50 is above 30 µM and the maximal effect (Emax) came to 10%.
The corresponding values for `Cc1nc(CN2CCC(c3cccc4c3O[C@@](C)(c3ccc(Cl)cc3F)O4)CC2)n(C[C@@H]2CCO2)c1-c1nc(C(=O)O)c(C)o1` [Compound C-1, 2-(2-((4-((S)-2-(4-chloro-2-fluorophenyl)-2-methylbenzo[d][1,3]dioxol-4-yl)piperidin-1-yl)methyl)-4-methyl-1-(((S)-oxetan-2-yl)methyl)-1H-imidazol-5-yl)-5-methyloxazole-4-carboxylic acid] are above 30 µM and 2%.
The corresponding values for `CCc1nc(CN2CCC(c3cccc4c3O[C@@](C)(c3ccc(Cl)cc3F)O4)CC2)n(C[C@@H]2CCO2)c1-c1nc(C(=O)O)co1` [Compound C-5, 2-(2-((4-((S)-2-(4-chloro-2-fluorophenyl)-2-methylbenzo[d][1,3]dioxol-4-yl)piperidin-1-yl)methyl)-4-ethyl-1-(((S)-oxetan-2-yl)methyl)-1H-imidazol-5-yl)oxazole-4-carboxylic acid] are above 30 µM and 0%.
Take `Cc1nc(CN2CCC(c3cccc4c3O[C@@](C)(c3ccc(Cl)cc3F)O4)CC2)n(C[C@@H]2CCO2)c1-c1coc(C(=O)O)n1` [Compound C-20, 4-(2-((4-((S)-2-(4-chloro-2-fluorophenyl)-2-methylbenzo[d][1,3]dioxol-4-yl)piperidin-1-yl)methyl)-4-methyl-1-(((S)-oxetan-2-yl)methyl)-1H-imidazol-5-yl)oxazole-2-carboxylic acid]: the EC50 was above 30 µM and the maximum response (Emax) amounted to 0%.
The corresponding values for `Cc1c(-c2nc(C(=O)O)co2)nc(CN2CCC(c3cccc4c3O[C@@](C)(c3ccc(Cl)cc3F)O4)CC2)n1C[C@@H]1CCO1` [Compound C-13, 2-(2-((4-((S)-2-(4-chloro-2-fluorophenyl)-2-methylbenzo[d][1,3]dioxol-4-yl)piperidin-1-yl)methyl)-5-methyl-1-(((S)-oxetan-2-yl)methyl)-1H-imidazol-4-yl)oxazole-4-carboxylic acid] are above 30 µM and 12%.
The corresponding values for `Cc1nc(CN2CCC(c3cccc4c3O[C@@](C)(c3ccc(Cl)cc3F)O4)CC2)n(C[C@@H]2CCO2)c1-c1cc(C(=O)O)n(C)n1` [Compound C-21, 3-(2-((4-((S)-2-(4-chloro-2-fluorophenyl)-2-methylbenzo[d][1,3]dioxol-4-yl)piperidin-1-yl)methyl)-4-methyl-1-(((S)-oxetan-2-yl)methyl)-1H-imidazol-5-yl)-1-methyl-1H-pyrazole-5-carboxylic acid] are above 30 µM and 0%.
The corresponding values for `Cc1nc(CN2CCC(c3cccc4c3O[C@@](C)(c3ccc(Cl)cc3F)O4)CC2)n(C[C@@H]2CCO2)c1-c1nc(C(=O)O)co1` [Compound C-9, 2-(2-((4-((S)-2-(4-chloro-2-fluorophenyl)-2-methylbenzo[d][1,3]dioxol-4-yl)piperidin-1-yl)methyl)-4-methyl-1-(((S)-oxetan-2-yl)methyl)-1H-imidazol-5-yl)oxazole-4-carboxylic acid] are above 30 µM and 0%.
